Columns and labels:
Format in all cases: functional
Candida albicans [1] = experiment: Antifungal activity against Candida albicans CPCC 400616 assessed as inhibition of fungal growth by microdilution method
Candida albicans [2] = experiment: Antifungal activity against Candida albicans ATCC SC5314 assessed as inhibition of fungal growth by microdilution method
Nakaseomyces glabratus = experiment: Antifungal activity against clinical isolate Candida glabrata assessed as inhibition of fungal growth by microdilution method
Candida parapsilosis = experiment: Antifungal activity against Candida parapsilosis 22019 assessed as inhibition of fungal growth by microdilution method; settings: Lodderomyces parapsilosis
Pichia kudriavzevii = experiment: Antifungal activity against Candida krusei AS 2.1045 assessed as inhibition of fungal growth by microdilution method
Candida tropicalis = experiment: Antifungal activity against Candida tropicalis CGMCC 2.3739 assessed as inhibition of fungal growth by microdilution method
Cryptococcus neoformans = experiment: Antifungal activity against Cryptococcus neoformans CGMCC 2.3161 assessed as inhibition of fungal growth by microdilution method
Aspergillus fumigatus = experiment: Antifungal activity against Aspergillus fumigatus CGMCC 3.7795 assessed as inhibition of fungal growth by microdilution method

MIC (Candida albicans [1])	MIC (Candida albicans [2])	MIC (Nakaseomyces glabratus)	MIC (Candida parapsilosis)	MIC (Pichia kudriavzevii)	MIC (Candida tropicalis)	MIC (Cryptococcus neoformans)	MIC (Aspergillus fumigatus)	SMILES
0.06 µg/mL	0.03 µg/mL	2 µg/mL	0.25 µg/mL	1 µg/mL	0.25 µg/mL	2 µg/mL	2 µg/mL	OC(C[Se]Cc1cccc(F)c1)(Cn1cncn1)c1ccc(F)cc1F (stereo unspecified)
0.25 µg/mL	0.5 µg/mL	1 µg/mL	0.25 µg/mL	1 µg/mL	2 µg/mL	0.5 µg/mL	4 µg/mL	CCc1ccccc1[Se]CC(O)(Cn1cncn1)c1ccc(F)cc1F (stereo unspecified)
1 µg/mL	0.5 µg/mL	4 µg/mL	0.5 µg/mL	2 µg/mL	2 µg/mL	1 µg/mL	4 µg/mL	CCc1ccc([Se]CC(O)(Cn2cncn2)c2ccc(F)cc2F)cc1 (stereo unspecified)
0.03 µg/mL	0.03 µg/mL	4 µg/mL	0.25 µg/mL	2 µg/mL	0.5 µg/mL	0.5 µg/mL	4 µg/mL	OC(C[Se]Cc1ccc(C(F)(F)F)cc1)(Cn1cncn1)c1ccc(F)cc1F (stereo unspecified)
0.125 µg/mL	0.02 µg/mL	0.5 µg/mL	0.125 µg/mL	0.125 µg/mL	0.25 µg/mL	0.25 µg/mL	2 µg/mL	OC(C[Se]Cc1ccccc1Cl)(Cn1cncn1)c1ccc(F)cc1F (stereo unspecified)
1 µg/mL	1 µg/mL	2 µg/mL	0.5 µg/mL	1 µg/mL	0.5 µg/mL	0.25 µg/mL	2 µg/mL	Cc1ccc(C)c([Se]CC(O)(Cn2cncn2)c2ccc(F)cc2F)c1 (stereo unspecified)
0.06 µg/mL	0.03 µg/mL	4 µg/mL	0.25 µg/mL	2 µg/mL	0.06 µg/mL	0.03 µg/mL	8 µg/mL	Cc1cc(C)cc([Se]CC(O)(Cn2cncn2)c2ccc(F)cc2F)c1 (stereo unspecified)
0.25 µg/mL	0.125 µg/mL	4 µg/mL	0.25 µg/mL	8 µg/mL	4 µg/mL	2 µg/mL	4 µg/mL	COc1cccc(C[Se]CC(O)(Cn2cncn2)c2ccc(F)cc2F)c1 (stereo unspecified)
0.125 µg/mL	0.06 µg/mL	2 µg/mL	0.25 µg/mL	2 µg/mL	1 µg/mL	1 µg/mL	2 µg/mL	Cc1ccc(C[Se]CC(O)(Cn2cncn2)c2ccc(F)cc2F)cc1 (stereo unspecified)
0.5 µg/mL	0.02 µg/mL	4 µg/mL	0.125 µg/mL	2 µg/mL	2 µg/mL	1 µg/mL	8 µg/mL	COc1cccc([Se]CC(O)(Cn2cncn2)c2ccc(F)cc2F)c1 (stereo unspecified)
					1 µg/mL			Clc1ccc(COC(Cn2ccnc2)c2ccc(Cl)cc2Cl)c(Cl)c1 (stereo unspecified) [MICONAZOLE]
0.06 µg/mL	0.5 µg/mL	1 µg/mL	0.25 µg/mL	0.125 µg/mL	1 µg/mL	0.25 µg/mL	4 µg/mL	Cc1cccc(C)c1[Se]CC(O)(Cn1cncn1)c1ccc(F)cc1F (stereo unspecified)
0.125 µg/mL	0.06 µg/mL	4 µg/mL	0.25 µg/mL	2 µg/mL	1 µg/mL	1 µg/mL	4 µg/mL	Cc1cccc(C[Se]CC(O)(Cn2cncn2)c2ccc(F)cc2F)c1 (stereo unspecified)

SMILES	MIC (Candida albicans [1])	MIC (Candida albicans [2])	MIC (Nakaseomyces glabratus)	MIC (Candida parapsilosis)	MIC (Pichia kudriavzevii)	MIC (Candida tropicalis)	MIC (Cryptococcus neoformans)	MIC (Aspergillus fumigatus)
Cc1cccc([Se]CC(O)(Cn2cncn2)c2ccc(F)cc2F)c1 (stereo unspecified)	0.25 µg/mL	0.125 µg/mL	2 µg/mL	0.5 µg/mL	0.5 µg/mL	1 µg/mL	0.5 µg/mL	8 µg/mL
Cc1ccccc1[Se]CC(O)(Cn1cncn1)c1ccc(F)cc1F (stereo unspecified)	1 µg/mL	0.03 µg/mL	0.5 µg/mL	0.125 µg/mL	0.5 µg/mL	1 µg/mL	0.25 µg/mL	16 µg/mL
OC(C[Se]c1ccc(F)cc1)(Cn1cncn1)c1ccc(F)cc1F (stereo unspecified)	0.25 µg/mL	0.125 µg/mL	4 µg/mL	0.125 µg/mL	2 µg/mL	0.5 µg/mL	0.25 µg/mL	4 µg/mL

From ChEMBL document CHEMBL5236585, “Design, synthesis and antifungal activities of novel triazole derivatives with selenium-containing hydrophobic side chains” (Bioorg Med Chem Lett, 2022)
